How the values were obtained:
rat hepatocytes [1] = assay: Metabolism and metabolite formation in hepatocytes; assay type: in vitro ADME, SD rat;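 for Area Ratio T0 h: peak area of analyte divided by internal standard peak area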
Excerpt: (§1) All the samples were duplicates.

human hepatocytes [2] = assay: Metabolism and metabolite formation in hepatocytes; conditions: human hepatocytes
Description: 10 µM BPI-460372 was incubated in five species (human, cynomolgus monkey, beagle dog, SD rat, and ICR mouse) hepatocytes (1 × 10^6 cells·min^-1) at 37 °C for 4 h. 7-EC, as positive control, was incubated for 0 h and 4 h. For blank control, hepatocytes were inactivated by adding ice-cold acetonitrile, and then the BPI-460372 solution was added. All the samples were duplicates. Incubations were stopped using the same volume of cold acetonitrile. The tube was vortexed, and the duplicate samples were combined. Metabolite profiling and identification of BPI-460372 were conducted by using UHPLC-Orbitrap-HRMS. The samples of 7-EC were analyzed by LC-MS/MS and then semi-quantified using the peak area ratio of analyte versus IS.
For hepatocyte metabolite identification, the different metabolites of BPI-460372 were detected using an ACQUITY UPLC HSS T3 column (1.8 µm, 100 mm × 2.1 mm) and ACQUITY UPLC BEH C18 column (1.7 µm, 100 mm × 2.1 mm) for rat and dog metabolite identification. The mobile phase contained a mixture of 0.1% formic acid in water (A) and 0.1% formic acid in acetonitrile (B). The gradient elution program was as follows: 0.0-1.0 min, 5% B; 1.0-7.0 min, 5%-30% B; 7.0-12.0 min, 30%-80% B; 12.0-16.0 min, 80%-95% B; 16.0-18.0 min, 95% B; 18.0-18.1 min, 95%-5% B. Then, 5% B from 18.1 to 20.0 min was maintained for equilibration. The flow rate was set to 0.5 mL/min, and the column temperature was kept at 40°C. Eluted fractions were monitored by a UV detector at 314 nm.

mouse hepatocytes [3] = assay: Metabolism and metabolite formation in hepatocytes; assay type: in vitro ADME, ICR mouse;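 for Area Ratio T0 h: peak area of analyte divided by internal standard peak area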;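 for Area Ratio T4 h: peak area of analyte divided by internal standard peak area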
Excerpt: as §1

monkey hepatocytes [4] = assay: Metabolism and metabolite formation in hepatocytes; assay type: in vitro ADME, cynomolgus monkey;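 for Area Ratio T4 h: peak area of analyte divided by internal standard peak area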
Excerpt: as §1

dog hepatocytes [5] = assay: Metabolism and metabolite formation in hepatocytes; assay type: in vitro ADME, beagle dog;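 for Area Ratio T0 h: peak area of analyte divided by internal standard peak area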;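 for Area Ratio T4 h: peak area of analyte divided by internal standard peak area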
Excerpt: as §1

in vitro = conditions: hepatocytes
Description: (§2) After mixing, 20 μL of cell suspension was serially transferred into 200 μL of cold acetonitrile containing IS at the time points of 0, 5, 15, 30, 60, and 120 min, respectively.
(§3) The metabolic stability was assessed by measuring the depletion of substrate. The half-life (t1/2), intrinsic clearance (CLint, in virto, µL·min^-1·million cells^-1), whole liver intrinsic clearance (CLint, in vivo, mL·min-1·kg^-1), and in vivo hepatic clearance (CLH, mL·min-1·kg^-1) were calculated following a reported method. In the calculation of CLH, the fraction drug unbound (Fub) was set as 1. The hepatic blood flow, liver weight, and hepatocellularity of five species were used for the calculation of CLint, in vivo [13, 14]. The hepatic extraction ratio (Eh) means the ratio of CLH to hepatic blood flow.

monkey hepatocytes [6] = assay: in vitro
Description: as §2, §3

mouse hepatocytes [7] = assay: in vitro
Description: as §2, §3

human hepatocytes [8] = assay: in vitro
Description: as §2, §3

dog hepatocytes [9] = assay: in vitro
Description: as §2, §3

rat hepatocytes [10] = assay: in vitro
Description: as §2, §3

[11] = Metabolite identification in rat plasma, urine, feces and bile; assay type: in vivo, SD rats; conditions: for Relative abundance of MS peak areas, Rat Plasma 0-24 h: oral 12 mg/kg BPI-460372, average of male and female pooled samples
Description: (§4) The plasma samples were acquired from SD rats (n=6, 3 female and 3 male) and beagle dogs (n=6, 3 female and 3 male) after administration of 12 mg/kg and 8 mg/kg of BPI-460372, respectively. The rat urine, feces, and bile samples were acquired in SD rats after administration of 6 mg/kg of BPI-460372.
(§5) Equal volume from each rat was pooled together to get 1 male and 1 female 0-24 h plasma samples. An equal percentage by volume of individual urine sample (0-8, 8-24, and 24-48 h) from 3 female and 3 male rats was pooled by time interval across rats, respectively, resulting in two pooled urine samples (1 male and 1 female). An equal percentage by weight of individual feces samples (0-8, 8-24, and 24-48 h) was pooled by time interval across female and male rats, resulting in two pooled fecal samples. An equal percentage by volume of individual bile samples (0-4, 4-8, 8-24, and 24-48 h) was pooled by time interval across female and male rats, resulting in two pooled bile samples. […] Equal volumes from 3 female and 3 male rats were pooled together to get two 0-48 h plasma samples. For blank samples of plasma, urine, and bile, equal volume was pooled across subjects. For a blank sample of feces, equal weight was pooled across rats.
(§6) The pooled plasma, feces, and bile samples were extracted by adding 3-fold volume of acetonitrile, and the mixture was vortexed (1 min) and sonicated (1 min) before centrifugation (7220 g, 5 min). The pooled urine samples were centrifuged (7220 g, 5 min). Then the supernatant was transferred into a clean tube and evaporated to dryness under the nitrogen stream. The residues were redissolved with an appropriate volume of acetonitrile/water (20: 80, v: v). After centrifugation, the redissolved solution was transferred into an HPLC vial for UHPLC-Orbitrap-HRMS (15000 g, 10 min, 4°C).

[12] = Metabolite identification in dog plasma; assay type: in vivo, beagle dogs; conditions: oral 8 mg/kg BPI-460372, average of male and female pooled samples
Description: as §4, §5, §6

[13] = oral 6 mg/kg BPI-460372, average of male and female pooled samples

O=C(O)[C@H]1O[C@@H](Oc2ccc3ccc(=O)oc3c2)[C@H](O)[C@@H](O)[C@@H]1O [7-EC-GluA, reference compound]
Area Ratio T0 h (rat hepatocytes [1]; rat hepatocytes, 7-EC incubation, 0 h): 1.45E+02 | Area Ratio T4 h (rat hepatocytes [1]; rat hepatocytes, 7-EC incubation, 4 h): 8.08E+05 | Area Ratio T0 h (human hepatocytes [2]; 7-EC incubation, 0 h): 1.07E+03 | Area Ratio T4 h (human hepatocytes [2]; 7-EC incubation, 4 h): 3.85E+06 | Area Ratio T0 h (mouse hepatocytes [3]; mouse hepatocytes, 7-EC incubation, 0 h): 0.00E+00 | Area Ratio T4 h (mouse hepatocytes [3]; mouse hepatocytes, 7-EC incubation, 4 h): 7.44E+06 | Area Ratio T0 h (monkey hepatocytes [4]; monkey hepatocytes, 7-EC incubation, 0 h): 6.08E+02 | Area Ratio T4 h (monkey hepatocytes [4]; monkey hepatocytes, 7-EC incubation, 4 h): 1.55E+07 | Area Ratio T0 h (dog hepatocytes [5]; dog hepatocytes, 7-EC incubation, 0 h): 0.00E+00 | Area Ratio T4 h (dog hepatocytes [5]; dog hepatocytes, 7-EC incubation, 4 h): 1.27E+07

O=c1ccc2ccc(O)cc2o1 [7-hydroxycoumarin]
half-life at 1 µM (in vitro; ICR, mouse): 49.3 min | half-life at 1 µM (in vitro; SD, rat): 22.5 min | half-life at 1 µM (in vitro; beagle, dog): 29.8 min | half-life at 1 µM (in vitro; human): 20.4 min | half-life at 1 µM (in vitro; monkey): 17.8 min | CLH (monkey hepatocytes [6]; cynomolgus monkey, 1 µM): 33.5 mL/min/kg | Eh (monkey hepatocytes [6]; cynomolgus monkey, 1 µM): 0.762 | CLint, in vivo (monkey hepatocytes [6]; hepatocytes): 140.6 mL/min/kg | CLint, in virto (monkey hepatocytes [6]; monkey, hepatocytes): 39.0 µL·min^-1·Million cells^-1 | CLH (mouse hepatocytes [7]; ICR, mouse, 1 µM): 58.5 mL/min/kg | Eh (mouse hepatocytes [7]; ICR, mouse, 1 µM): 0.650 | CLint, in vivo (mouse hepatocytes [7]; hepatocytes): 167.1 mL/min/kg | CLint, in virto (mouse hepatocytes [7]; mouse, hepatocytes): 14.1 µL·min^-1·Million cells^-1 | CLint, in vivo (human hepatocytes [8]; hepatocytes): 122.6 mL/min/kg | CLH (human hepatocytes [8]; human, 1 µM): 17.7 mL/min/kg | Eh (human hepatocytes [8]; human, 1 µM): 0.856 | CLint, in virto (human hepatocytes [8]; human, hepatocytes): 33.9 µL·min^-1·Million cells^-1 | CLH (dog hepatocytes [9]; beagle, dog, 1 µM): 25.9 mL/min/kg | Eh (dog hepatocytes [9]; beagle, dog, 1 µM): 0.838 | CLint, in virto (dog hepatocytes [9]; dog, hepatocytes): 23.3 µL·min^-1·Million cells^-1 | CLint, in vivo (dog hepatocytes [9]; hepatocytes): 160.0 mL/min/kg | CLH (rat hepatocytes [10]; SD, rat, 1 µM): 39.9 mL/min/kg | Eh (rat hepatocytes [10]; SD, rat, 1 µM): 0.723 | CLint, in vivo (rat hepatocytes [10]; hepatocytes): 144.0 mL/min/kg | CLint, in virto (rat hepatocytes [10]; rat, hepatocytes): 30.8 µL·min^-1·Million cells^-1

NCC(C(=O)O)n1c(=O)n(-c2ccc(C(F)(F)F)cc2)c2nccnc21 (stereo not drawn) [M367]
Relative abundance of MS peak areas, Rat Feces 0-48 h [11, 13]: 2.77% | Relative abundance of MS peak areas, Rat Urine 0-48 h [11, 13]: 2.55% | Relative abundance of MS peak areas, Rat Plasma 0-24 h [11]: 0.065% | Relative abundance of MS peak areas, Dog Plasma 0-48 h [12]: 0.83%

CC(=O)N1CC(n2c(=O)n(-c3ccc(C(F)(F)F)cc3)c3nccnc32)C1 [M377]
UV (314 nm) Peak Areas Relative Abundance (rat hepatocytes [1]; SD rat hepatocytes, 10 µM BPI-460372, 4 h incubation): 2.6% | UV (314 nm) Peak Areas Relative Abundance (human hepatocytes [2]; 10 µM BPI-460372, 4 h incubation): 1.48% | UV (314 nm) Peak Areas Relative Abundance (mouse hepatocytes [3]; ICR mouse hepatocytes, 10 µM BPI-460372, 4 h incubation): 3.57% | UV (314 nm) Peak Areas Relative Abundance (monkey hepatocytes [4]; cynomolgus monkey hepatocytes, 10 µM BPI-460372, 4 h incubation): 2.50% | UV (314 nm) Peak Areas Relative Abundance (dog hepatocytes [5]; beagle dog hepatocytes, 10 µM BPI-460372, 4 h incubation): 2.44%

C=CC(=O)N1CC(n2c(=O)n(-c3ccc(C(F)(F)F)cc3)c3nccnc32)C1 [M389]
Relative abundance of MS peak areas, Rat Bile 0-48 h [11, 13]: 0.040% | Relative abundance of MS peak areas, Rat Feces 0-48 h [11, 13]: 16.59% | Relative abundance of MS peak areas, Rat Urine 0-48 h [11, 13]: 0.050% | Relative abundance of MS peak areas, Rat Plasma 0-24 h [11]: 0.67% | Relative abundance of MS peak areas, Dog Plasma 0-48 h [12]: 0.15%

CCC(=O)N1CC(n2c(=O)n(-c3ccc(C(F)(F)F)cc3)c3nccnc32)C1 [M391]
Relative abundance of MS peak areas, Rat Feces 0-48 h [11, 13]: 21.50% | Relative abundance of MS peak areas, Rat Urine 0-48 h [11, 13]: 0.015% | Relative abundance of MS peak areas, Rat Plasma 0-24 h [11]: 0.35% | Relative abundance of MS peak areas, Dog Plasma 0-48 h [12]: 0.36%

O=c1n(-c2ccc(C(F)(F)F)cc2)c2nccnc2n1C1CN(C(O)C(O)CO)C1 (stereo not drawn) [M425]
Relative abundance of MS peak areas, Rat Feces 0-48 h [11, 13]: 2.79% | Relative abundance of MS peak areas, Rat Urine 0-48 h [11, 13]: 2.52% | Relative abundance of MS peak areas, Rat Plasma 0-24 h [11]: 0.14% | Relative abundance of MS peak areas, Dog Plasma 0-48 h [12]: 0.98%

From publication PMC12376128, “In vitro and In Vivo Drug Metabolism Analysis of BPI-460372 - A Covalent TEAD1/3/4 Inhibitor” (Current Drug Metabolism, 2025)
